Measured values reported in PubChem BioAssay AID1117319 (Southern Research Institute, 2015).
pIC50: −log10 of the molar value. Results filed as inconclusive are left out.

target: Virion infectivity factor (Human immunodeficiency virus type 1 group M subtype B (isolate BH10)) + Virion infectivity factor (Human immunodeficiency virus type 1 group M subtype B (isolate BRU/LAI)) + Virion infectivity factor (Human immunodeficiency virus type 1 group M subtype B (isolate PCV12)) + Virion infectivity factor (Human immunodeficiency virus type 1 group M subtype B (isolate HXB2)) + DNA dC->dU-editing enzyme APOBEC-3G (Homo sapiens) (UniProt P69720+P69721+P69722+P69723+Q9HC16); assay: HIV-1 Vif–A3G interaction blockers – biochemical, TR-FRET, GST-Vif 1-94, biotin-A3G peptide, dose response retest, primary screen (AID 1117319); details: TR-FRET GST-Vif / biotin-A3G peptide binding;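 also: Vif residues 1-94 fused to GST binding biotinylated APOBEC3G peptide 110-148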

Row | SMILES | pIC50
1 | CC(C)c1ccc(S(=O)(=O)/N=C2/C=CC(=O)c3ccccc32)cc1 | 5.27
2 | O=c1cc(-c2ccc(O)cc2)oc2cc(O)c(C3OC(CO)C(O)C(O)C3O)c(O)c12 (centres undefined) | 5.15
3 | CC1CCCCN1Cc1ccc(N(C)C)cc1 (centres undefined) | 4.18
4 | CCCN1C(=O)S/C(=C\c2ccc(N3CCOCC3)cc2C)C1=O | 4.63
5 | [O-][n+]1onc2c1CCc1c-2nc(-c2ccccc2)n1OCc1ccccc1 | 4.11
6 | COc1ccc(S(=O)(=O)Nc2cc(SCC(=O)O)c(O)c3ccccc23)cc1 | 4.66
7 | CC(C)N1C(=O)CC(Nc2ccc(N3CCOCC3)cc2)C1=O (centres undefined) | 5.54
8 | CC1CCN(Cc2c(O)ccc3c2O/C(=C\c2ccco2)C3=O)CC1 | 5.52
9 | N=C1C=CC(=C(c2ccc(N)cc2)c2ccc(N)cc2)C=C1 | 5.46
10 | O=C(N/N=C/c1ccc(O)c(O)c1O)/C(=C/c1ccc([N+](=O)[O-])cc1)NC(=O)c1ccccc1 | 6.06
11 | COC(=O)c1cnn2c(C(F)(F)F)cc(-c3ccco3)nc12 | 5.15
12 | CCOC(=O)c1sc2nc(CC(=O)OC)nc(NCc3ccco3)c2c1C | 5.61
13 | CCOC(=O)CSc1nc2c(sc(=S)n2-c2ccccc2OC)c(=O)n1Cc1ccco1 | 4.56
14 | CC(=O)N(C1=C(Cl)C(=O)c2ccccc2C1=O)c1ccc(C(=O)O)cc1 | 4.22
15 | CCN1/C(=C(\O)c2ccccc2)C(=O)c2ccccc2S1(=O)=O | 4.26
16 | CCCCC(=O)NC(=S)Nc1cc(C(=O)O)ccc1Cl | 4.80
17 | O=C1/C(=C\c2ccco2)SC(=S)N1Cc1ccccc1 | 5.45
18 | CCOC(=O)C1=C(N)n2c(s/c(=C\c3ccco3)c2=O)=C(C(=O)OCC)C1c1ccco1 (centres undefined) | 5.85
19 | CCNc1ccc(Br)cc(C(=O)/C=C/c2ccc3c(c2)OCO3)c1=O | 4.61
20 | O=C(O)/C(=C/c1ccco1)NC(=O)c1ccccc1 | 4.71
21 | COCCN=c1scc(-c2cccs2)n1/N=C/c1ccc(O)c(O)c1O | 5.63

Row | SMILES | pIC50
22 | Cc1ccc(-c2c3c([nH]c(=S)c2C#N)CCCC3)o1 | 4.86
23 | COC(=O)c1ccc(COc2ccccc2/C=C(\C#N)C(=O)Nc2c(C)cc(C)cc2C)cc1 | 4.64
24 | COc1ccc(NC(=O)CCCSc2ccccc2)cc1 | 4.32
25 | C=CCN=c1scc(C)n1/N=C/c1ccc(O)c(O)c1 | 4.81
26 | N=C1/C(=C\c2ccc(SCc3ccco3)o2)C(=O)N=C2SC=NN12 | 5.92
27 | Cc1cc(C)nc(N/N=C/C2=C(N3CCOCC3)C(=C\c3ccc(Cl)cc3)/CC2)n1 | 4.88
28 | CCc1noc(N)c1C(=O)Nc1ccc(F)c(Cl)c1 | 4.13
29 | O=C(N/N=C/C=C\c1ccco1)c1cccnc1 | 5.39
30 | Cc1ccc(/C=C/C(=O)Nc2ccc([N+](=O)[O-])c(NC(=O)/C=C/c3ccc(C)o3)c2)o1 | 5.83
31 | O=C(OCC(=O)N1CCN(C(=O)c2ccco2)CC1)c1cc(-c2ccco2)nc2ccccc12 | 5.40
32 | Cc1ccc(Cl)cc1N1CCN(C(=O)COc2ccc3c(c2)CCC3)CC1 | 4.34
33 | O=C(O)C1Cc2ccccc2N2CCCC12 (centres undefined) | 4.82
34 | O=C1NC(=O)N(c2ccccc2)C(=O)/C1=C\c1ccc([N+](=O)[O-])s1 | 4.87
35 | COc1ccccc1NC(=O)c1cc2ccccc2o/c1=N\O | 4.17
36 | N#C/C=C\Oc1ccc(Cl)cc1N | 4.30
37 | CCC(Cc1ccccc1)NC(=O)C1CCN(S(=O)(=O)c2c(C)noc2C)CC1 (centres undefined) | 4.04
38 | CCOC(=O)C1=C(N)n2c(s/c(=C\c3ccco3)c2=O)=C(C(=O)OC(C)C)C1c1ccco1 (centres undefined) | 5.91
39 | COc1ccc2nc(NNC(=O)c3cc(=O)c4ccccc4o3)sc2c1 | 4.57
40 | CNc1ccc(Br)cc(C(=O)/C=C/c2cc(OC)ccc2OC)c1=O | 5.44
41 | CCOc1ccc(NCC2CCOC(C)(C)C2)cc1 (centres undefined) | 5.02
42 | Cn1cccc1/C=C1/C(=O)NC(=O)N(Cc2ccccc2)C1=O | 5.48

Row | SMILES | pIC50
43 | O=C(c1ccccc1Br)N1CCN(c2ccccc2)CC1 | 4.41
44 | CC1(C)Cc2nc3sc(C(=O)O)c(N)c3cc2CS1 | 4.74
45 | O=C(O)c1cc(Nc2cc(Cl)c3nonc3c2[N+](=O)[O-])ccc1O | 4.24
46 | CC(C)(C)NC(=O)C(c1ccncc1)N(C(=O)CNC(=O)c1ccco1)c1ccc2c(c1)OCO2 (centres undefined) | 4.95
47 | Cc1ccc(-c2cc(-c3ccc4c(c3)OCO4)c(C#N)c(N)n2)o1 | 5.15
48 | CCC(=Nc1ccc(N)cc1)C1=C(O)C(C(=O)OC)C(C)(C)CC1=O (centres undefined) | 5.70
49 | CCCCn1c(O)c(C(CC)=NCCN2CCCCC2)c(=O)[nH]c1=O | 5.39
50 | COc1cc(CNc2ccc(O)cc2)cc(Br)c1OCc1ccccc1 | 5.52
51 | COC(=O)C1=COC(C)C2CN3CCc4c([nH]c5ccccc45)C3CC12 (centres undefined) | 4.75
52 | Oc1c(CN2CCOCC2)cc(CN2CCOCC2)c(O)c1O | 5.04
53 | Cc1cc(NC(=O)CCNS(=O)(=O)c2cc(Br)cnc2N)ccc1Br | 4.45
54 | O=C(/C=C/c1cccs1)N1CCN(c2ccc(O)cc2)CC1 | 4.68
55 | CC(=O)N1CCN(c2ccc(NCc3ccc(C)s3)cc2)CC1 | 5.50
56 | O=C(NCCCO)Nc1ccc2nc(-c3ccco3)c(-c3ccco3)nc2c1 | 6.59
57 | Nc1ccc2c(O)cc(S(=O)(=O)O)cc2c1 | 5.03
58 | CCCCn1cnc2cc(NCc3ccncc3)ccc21 | 4.45
59 | O=CN/C=C/c1cc(O)ccc1O | 5.76
60 | COc1ccc(NCc2nc3ccccc3n2CCOc2ccccc2)cc1 | 4.31
61 | COCCNC(=O)Nc1ccc2nc(-c3ccco3)c(-c3ccco3)nc2c1 | 6.60
62 | COc1ccc(N2CCN(C(=O)c3ccc(C)c(Cl)c3)CC2)cc1 | 4.38
63 | C/C(=C\C(=O)c1ccc(C)cc1)Nc1cccc(O)c1 | 4.27

Row | SMILES | pIC50
64 | CCCC(=O)NC1=C(Cl)C(=O)c2ccccc2C1=O | 4.88
65 | Cc1occc1-c1nnc(SCC(=O)N2CCN(c3ccccc3)CC2)n1C | 4.25
66 | CCc1ccc(S(=O)(=O)/N=C2\C=CC(=O)c3ccccc32)cc1 | 5.09
67 | Cc1ccc(OCCSc2nnc(-c3ccncc3)n2C)cc1 | 4.12
68 | O=C(CCN1C(=O)/C(=C/c2cccs2)SC1=S)NC1=NCCS1 | 4.91
69 | Cc1ccc(-c2nnn(CC(=O)N(c3ccc(F)cc3)C(C(=O)NC3CCCC3)c3ccco3)n2)o1 (centres undefined) | 4.07
70 | CCC(c1nnnn1C(C)(C)CC)N(CCCO)Cc1cc2cc(C)cc(C)c2[nH]c1=O (centres undefined) | 6.31
71 | Nc1ccc(S(=O)(=O)c2cc(O)c3ccccc3c2O)cc1 | 4.61
72 | Cc1ccc([C@@H]2C3COCC=C3C(C#N)=C(N)C2(C#N)C#N)o1 (some centres undefined) | 4.99
73 | CC(C)c1ccc(/C=C/C(=O)N2CCc3ccccc3C2)cc1 | 4.75
74 | O=c1cc(OCc2ccccc2)cc[nH]1 | 5.51
75 | O=C1CC(c2ccco2)CC(O)=C1C=Nc1cc(Cl)cc(Cl)c1 (centres undefined) | 5.39
76 | COc1ccc(CCNC(=O)CN2CCCc3ccccc32)cc1OC | 4.04
77 | COc1cc2[nH]c(Cl)c([N+](=O)[O-])c2cc1OC | 5.42
78 | Cc1ncc(CO)c(/C=N/NC(=O)c2cc(O)c(O)c(O)c2)c1O | 5.61
79 | C=CCN1C(=O)/C(=C\c2ccco2)C(C(=O)OC)=C1C | 4.85
80 | CCOC(=O)CNc1ccc2c(c1)OCO2 | 5.61
81 | COc1cc(-c2cccs2)cc(=O)c2c(C)oc(C)c12 | 5.45
82 | Cc1cccc2cc(-c3ccccc3)c(-c3ccccc3)c[n+]12 | 5.17
83 | N#Cc1c(NC(=O)CSc2ncnc3sccc23)oc(-c2ccco2)c1-c1ccco1 | 6.02
84 | COC(=O)C1=C(C)N(Cc2ccccc2)C(=O)/C1=C\c1ccco1 | 4.95
